Measurements reported in ChEMBL document CHEMBL4270538, “Targeting prohibitin with small molecules to promote melanogenesis and apoptosis in melanoma cells” (Eur J Med Chem, 2018).

Assays:
[1] = target: Prohibitin-2 (Homo sapiens) (UniProt Q99623); assay: Induction of PHB2-mediated melanogenesis in human HBL cells assessed as pigmentation at 1 uM after 10 days relative to control; format: cell-based
[2] = target: Prohibitin-2 (Homo sapiens) (UniProt Q99623); assay: Induction of PHB2-mediated melanogenesis in human HBL cells assessed as pigmentation at 10 uM after 10 days relative to control; format: cell-based

Prohibitin-2 (Homo sapiens), sequence (Q99623 whole entry): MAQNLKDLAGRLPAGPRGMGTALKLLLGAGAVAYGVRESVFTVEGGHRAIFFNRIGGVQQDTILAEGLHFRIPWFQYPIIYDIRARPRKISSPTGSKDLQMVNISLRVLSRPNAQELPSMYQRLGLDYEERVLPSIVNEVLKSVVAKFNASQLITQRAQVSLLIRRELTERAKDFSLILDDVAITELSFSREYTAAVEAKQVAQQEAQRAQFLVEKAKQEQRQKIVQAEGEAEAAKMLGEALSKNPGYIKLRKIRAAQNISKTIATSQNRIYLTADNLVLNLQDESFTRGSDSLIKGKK

fold change (FC) [1] | fold change (FC) [2] | Compound
1.16 | 0.89 | CNc1nc(N[C@H](C)c2ccccc2)nc(Oc2c(F)c(F)c(F)c(F)c2F)n1
0.92 | 0.91 | Nc1nc(NCc2cccc(F)c2)nc(Oc2c(F)c(F)c(F)c(F)c2F)n1
0.94 | 0.83 | CC[C@H](CO)Nc1nc(N[C@H](C)c2ccccc2)nc(Oc2c(F)c(F)c(F)c(F)c2F)n1
0.99 | 1.04 | O=C1CCCN1CCCNc1nc(NCc2cccc(F)c2)nc(Oc2c(F)c(F)c(F)c(F)c2F)n1
0.8 | 0.61 | CC[C@@H](CO)Nc1nc(NCc2cccc(F)c2)nc(Oc2c(F)c(F)c(F)c(F)c2F)n1
1.11 | 1.43 | CCN(Cc1ccccc1)c1nc(NCCN(C)C)nc(Oc2c(F)c(F)c(F)c(F)c2F)n1
1.15 | 1.97 | CN(C)CCNc1nc(Oc2c(F)c(F)c(F)c(F)c2F)nc(N(C)Cc2cccc(F)c2)n1
1.04 | 1.05 | CN(C)c1nc(NCc2cccc(F)c2)nc(Oc2c(F)c(F)c(F)c(F)c2F)n1
0.77 | 0.43 | CC(Nc1nc(NCCN(C)C)nc(Oc2c(F)c(F)c(F)c(F)c2F)n1)c1cccc(F)c1 (stereo unspecified)
0.77 | 0.76 | Fc1cccc(CNc2nc(NCc3ccncc3)nc(Oc3c(F)c(F)c(F)c(F)c3F)n2)c1
1.06 | 1.39 | CCC(CO)Nc1nc(NCc2cccc(F)c2)nc(Oc2c(F)c(F)c(F)c(F)c2F)n1 (stereo unspecified)
0.88 | 0.94 | CNc1nc(Oc2c(F)c(F)c(F)c(F)c2F)nc(N(C)[C@H](C)c2ccccc2)n1
0.78 | 0.68 | CC[C@H](CO)Nc1nc(NC(C)c2cccc(F)c2)nc(Oc2c(F)c(F)c(F)c(F)c2F)n1 (stereo partly specified)
1.02 | 1.01 | Fc1cccc(CNc2nc(NCc3ccccn3)nc(Oc3c(F)c(F)c(F)c(F)c3F)n2)c1
0.85 | 0.74 | CC[C@H](CO)Nc1nc(Oc2c(F)c(F)c(F)c(F)c2F)nc(N2CCCc3ccccc3C2)n1
1.09 | 1.25 | Fc1cccc(CNc2nc(NCCc3cc4ccccc4[nH]3)nc(Oc3c(F)c(F)c(F)c(F)c3F)n2)c1
0.89 | 0.84 | OCC1CCN(c2nc(NCc3cccc(F)c3)nc(Oc3c(F)c(F)c(F)c(F)c3F)n2)CC1
0.8 | 0.86 | CNc1nc(Oc2c(F)c(F)c(F)c(F)c2F)nc(N2CCCc3ccccc3C2)n1
0.9 | 0.69 | CNc1nc(NCc2ccccc2)nc(Oc2c(F)c(F)c(F)c(F)c2F)n1
0.97 | 1.09 | Fc1cccc(CNc2nc(NCCNc3ccccn3)nc(Oc3c(F)c(F)c(F)c(F)c3F)n2)c1
0.96 | 0.89 | CC[C@H](CO)Nc1nc(Oc2c(F)c(F)c(F)c(F)c2F)nc(N(C)[C@@H](C)c2ccccc2)n1
1.01 | 0.86 | CNc1nc(Oc2c(F)c(F)c(F)c(F)c2F)nc(N(C)[C@@H](C)c2ccccc2)n1
0.86 | 0.55 | CCC(Nc1nc(NCCN(C)C)nc(Oc2c(F)c(F)c(F)c(F)c2F)n1)c1cccc(F)c1 (stereo unspecified)
0.9 | 1 | Fc1cccc(CNc2nc(NCCCCc3ccccc3)nc(Oc3c(F)c(F)c(F)c(F)c3F)n2)c1
0.89 | 0.84 | CNc1nc(NCc2cccc(F)c2)nc(Oc2c(F)c(F)c(F)c(F)c2F)n1
0.85 | 0.93 | Fc1cccc(CNc2nc(Oc3c(F)c(F)c(F)c(F)c3F)nc(N3CCOCC3)n2)c1
0.98 | 0.59 | CN(C)CCNc1nc(NCc2cccc(F)c2)nc(Oc2c(F)c(F)c(F)c(F)c2F)n1
0.93 | 0.98 | CNc1nc(Oc2c(F)c(F)c(F)c(F)c2F)nc(N2Cc3ccccc3C2)n1
